This passage reports IC50 results from US9487512B2, “(Hetero)aryl cyclopropylamine compounds as LSD1 inhibitors” (ORYZON GENOMICS, S.A., priority 2011, dated 2016).

In experiment [1] the target is Human recombinant LSD1 protein (Homo sapiens (Human), UniProt O60341). The experiment is described as follows: Inhibition of LSD1 (Amplex Red H2O2 release, di-methylated H3-K4 peptide substrate).
The target of experiment [2] is Human recombinant monoamine oxidase MAO-A (Homo sapiens (Human), UniProt P21397). The experiment is described as follows: Monoamine oxidase assay (kynuramine to 4-hydroxyquinoline fluorescence), MAO-A. Format: biochemical. From the text:
(§1) Human recombinant monoamine oxidase proteins MAO-A and MAO-B were purchased from Sigma Aldrich. MAOs catalyze the oxidative deamination of primary, secondary and tertiary amines. In order to monitor MAO enzymatic activities and/or their inhibition rate by inhibitor(s) of interest, a fluorescence-based (inhibitor)-screening assay was set up. 3-(2-Aminophenyl)-3-oxopropanamine (kynuramine dihydrobromide, Sigma Aldrich), a non fluorescent compound was chosen as a substrate. Kynuramine is a non-specific substrate for both MAO-A and MAO-B activities. While undergoing oxidative deamination by MAO activities, kynuramine is converted into 4-hydroxyquinoline (4-HQ), a resulting fluorescent product.
(§2) The monoamine oxidase activity was estimated by measuring the conversion of kynuramine into 4-hydroxyquinoline. Assays were conducted in 96-well black plates with clear bottom (Corning) in a final volume of 100 μL. The assay buffer was 100 mM HEPES, pH 7.5. Each experiment was performed in duplicate within the same experiment.
(§3) Clorgyline and Deprenyl (Sigma Aldrich) was used as a control for specific inhibition of MAO-A and MAO-B respectively. […]
(§4) The IC50 values of each inhibitor were calculated with GraphPad Prism Software.

Experiment [3] has as its target Human recombinant monoamine oxidase MAO-B (Homo sapiens (Human), UniProt P27338). The experiment in a line: Monoamine oxidase assay (kynuramine to 4-hydroxyquinoline fluorescence), MAO-B. Format: biochemical.
From the text: as §1, §2, §3, §4

Sequence of Human recombinant monoamine oxidase MAO-A (P21397 whole entry): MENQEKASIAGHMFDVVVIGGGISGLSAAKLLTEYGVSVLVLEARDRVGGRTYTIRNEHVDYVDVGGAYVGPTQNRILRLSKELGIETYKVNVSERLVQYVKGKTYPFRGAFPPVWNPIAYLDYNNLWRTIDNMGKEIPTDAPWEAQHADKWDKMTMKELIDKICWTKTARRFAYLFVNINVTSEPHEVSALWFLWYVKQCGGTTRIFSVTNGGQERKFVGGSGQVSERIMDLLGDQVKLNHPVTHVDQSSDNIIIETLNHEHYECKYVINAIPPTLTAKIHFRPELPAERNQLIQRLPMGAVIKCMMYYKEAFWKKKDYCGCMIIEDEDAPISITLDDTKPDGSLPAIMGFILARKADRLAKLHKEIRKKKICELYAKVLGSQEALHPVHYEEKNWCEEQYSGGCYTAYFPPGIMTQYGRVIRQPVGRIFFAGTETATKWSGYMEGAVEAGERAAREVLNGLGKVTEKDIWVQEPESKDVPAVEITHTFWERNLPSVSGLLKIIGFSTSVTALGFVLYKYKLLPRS
Sequence of Human recombinant monoamine oxidase MAO-B (P27338 whole entry): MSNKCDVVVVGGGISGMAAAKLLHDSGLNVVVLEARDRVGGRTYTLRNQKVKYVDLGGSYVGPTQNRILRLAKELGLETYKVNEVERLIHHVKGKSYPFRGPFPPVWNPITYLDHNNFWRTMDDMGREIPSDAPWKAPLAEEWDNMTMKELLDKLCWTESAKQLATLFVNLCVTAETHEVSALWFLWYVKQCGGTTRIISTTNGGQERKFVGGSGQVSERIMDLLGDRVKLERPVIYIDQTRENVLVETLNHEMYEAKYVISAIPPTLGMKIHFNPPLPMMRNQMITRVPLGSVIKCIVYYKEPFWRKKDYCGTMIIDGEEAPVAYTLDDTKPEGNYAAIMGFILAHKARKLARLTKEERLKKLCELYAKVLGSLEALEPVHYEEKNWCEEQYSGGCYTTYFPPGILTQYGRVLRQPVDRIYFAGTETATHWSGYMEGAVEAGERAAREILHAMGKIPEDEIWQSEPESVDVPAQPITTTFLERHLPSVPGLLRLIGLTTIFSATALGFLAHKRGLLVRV

The IC50 is the concentration that gives 50% inhibition. Regarding `Oc1ccc(C2CC2NC2CCNCC2)cc1` (stereo not drawn) [Example 23, 4-(2-(piperidin-4-ylamino)cyclopropyl)phenol], the values for the IC50 in experiment [1], in experiment [2] and in experiment [3] were around 100 µM, above 100 µM and above 100 µM, respectively.
